pIC50: −log10 of the molar value.
Assays:
hERG = biological target: T1, hERG (Homo sapiens, UniProt Q12809); assay: hERG ChanTest Fast Patch assay; format: cell-based
T1 construct: Charles River Laboratories International, Inc. (ChanTest assay service)
Description: The MDR1 efflux protocol is disclosed in Example 35 hereinbelow. The hERG IC50 values were measured using the ChanTest Fast Patch assay, available from Charles River Laboratories International, Inc. (http://www.criver.com/products-services/drug-discovery/cap abilities/ion-channel/selectivity-profiling).

[1] = In vitro metabolic stability in human liver microsomes (Example 34); format: in vitro ADME; conditions: 1 μM, predicted hepatic extraction ratio
Description: In vitro metabolic stabilities were studied at a concentration of 1 μM in the presence of liver microsomes and isolated hepatocytes.
A 100 mM potassium phosphate assay buffer solution (KPB) was prepared as follows. Both KH2PO4 and K2HPO4 were dissolved separately in reagent grade water resulting in final concentrations 100 mM. A 75:25 mixture v/v of K2HPO4:KH2PO4 was prepared and the pH of the solution was adjusted to 7.4 using diluted HCl or diluted NaOH solutions. A stock solution of test compound was prepared at 10 mM (active compound) in DMSO. The stock solution was diluted immediately before use to 2.5 μM using the KPB solution to create the working standard. All test compounds were completely soluble in DMSO by visual inspection at room temperature. […]
Data were acquired and peak areas were calculated for test compounds and the internal standard using Analyst 1.6.1 software (Sciex). […]
All calculations were performed using BioAssay Enterprise. The mean peak area ratios were calculated by averaging the peak area ratios (n=2) of test compound and the internal standard for each sample. Percent remaining was calculated by determining the ratio of the peak area ratio at each time point to the peak area ratio of the time-zero samples. The rate of loss of test compound (km) was determined by linear regression of—1n(f(t)) versus time. […] The t½ was determined dividing 1n(2) by km. […]

MDR1 (P-gp) = biological target: T2, MDR1 (P-gp) (Homo sapiens, UniProt P08183); assay: MDR1 efflux in MDR1 transfected LLC-PK1 cells (Example 35); format: in vitro ADME; conditions: pig, MDR1 transfected LLC-PK1 monolayers, read-out: MDRI efflux ratio
T2 construct: expressed in transfected cells; host or cells: LLC-PK1 cells
Description: Both LLC-PK1 and MDR1 transfected LLC-PK1 cells were cultured and plated according to manufacturer's recommendations with the exception that the passage media contained only 2% fetal bovine serum so as to extend passage time out to seven days.
Both positive and negative controls were used to assess functionality of P-gp efflux in the assay. Stock solutions for assay controls and the test article were prepared in DMSO for a final test concentrations of 10 μM. Final organic concentration in the assay was 1%. All dosing solutions contained 10 μM lucifer yellow to monitor LLC-PK1 cell monolayer integrity.
For the apical to basolateral determination (A to B), 75 μL of the test article in transport buffer were added to the apical side of the individual transwells and 250 μL of basolateral media, without compound or lucifer yellow, were added to each well. […] The plates were read using a Molecular Devices (Sunnyvale, Calif.) Gemini Fluorometer to evaluate the lucifer yellow concentrations at excitation/emission wavelengths of 425/535 nm. […] The plates were sealed and the contents of each well analyzed by LC-MS/MS. The compound concentrations were determined from the ratio of the peak areas of the compound to the internal standard (labetalol) in comparison to the dosing solution.
Permeability (Papp) was calculated in BioAssay v. […]

T2 sequence (P08183 whole entry): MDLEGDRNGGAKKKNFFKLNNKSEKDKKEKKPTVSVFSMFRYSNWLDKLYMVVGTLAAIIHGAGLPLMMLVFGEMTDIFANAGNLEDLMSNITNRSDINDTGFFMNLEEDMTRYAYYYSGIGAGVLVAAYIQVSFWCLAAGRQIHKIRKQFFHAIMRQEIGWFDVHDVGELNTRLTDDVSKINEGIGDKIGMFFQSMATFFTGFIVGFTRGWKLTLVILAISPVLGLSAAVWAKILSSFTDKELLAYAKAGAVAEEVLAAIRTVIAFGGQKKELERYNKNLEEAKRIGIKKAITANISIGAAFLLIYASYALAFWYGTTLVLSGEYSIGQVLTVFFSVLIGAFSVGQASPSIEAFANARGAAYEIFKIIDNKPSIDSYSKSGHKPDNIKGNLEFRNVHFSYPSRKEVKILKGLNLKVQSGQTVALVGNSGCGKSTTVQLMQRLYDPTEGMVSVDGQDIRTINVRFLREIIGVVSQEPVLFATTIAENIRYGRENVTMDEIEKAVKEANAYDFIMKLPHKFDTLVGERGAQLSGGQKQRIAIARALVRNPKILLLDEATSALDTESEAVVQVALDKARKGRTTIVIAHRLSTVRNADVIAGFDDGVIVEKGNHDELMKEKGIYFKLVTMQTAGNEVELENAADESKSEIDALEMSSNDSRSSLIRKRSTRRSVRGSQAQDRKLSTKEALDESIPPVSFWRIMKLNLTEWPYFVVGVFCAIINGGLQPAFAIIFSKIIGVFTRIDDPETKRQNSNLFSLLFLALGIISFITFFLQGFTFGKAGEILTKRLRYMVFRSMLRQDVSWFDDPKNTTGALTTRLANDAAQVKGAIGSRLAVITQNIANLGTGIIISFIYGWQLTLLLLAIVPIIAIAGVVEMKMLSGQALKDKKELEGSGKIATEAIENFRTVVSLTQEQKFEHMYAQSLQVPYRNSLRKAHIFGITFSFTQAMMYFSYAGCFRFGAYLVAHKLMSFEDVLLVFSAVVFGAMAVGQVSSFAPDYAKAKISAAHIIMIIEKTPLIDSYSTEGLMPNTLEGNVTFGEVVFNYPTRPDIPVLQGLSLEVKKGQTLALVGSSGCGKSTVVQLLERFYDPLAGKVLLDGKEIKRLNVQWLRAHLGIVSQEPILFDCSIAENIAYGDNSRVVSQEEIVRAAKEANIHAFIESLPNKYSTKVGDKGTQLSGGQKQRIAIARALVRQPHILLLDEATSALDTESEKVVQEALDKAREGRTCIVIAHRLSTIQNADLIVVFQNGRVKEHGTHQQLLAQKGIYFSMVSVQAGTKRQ
T1 sequence (Q12809 whole entry): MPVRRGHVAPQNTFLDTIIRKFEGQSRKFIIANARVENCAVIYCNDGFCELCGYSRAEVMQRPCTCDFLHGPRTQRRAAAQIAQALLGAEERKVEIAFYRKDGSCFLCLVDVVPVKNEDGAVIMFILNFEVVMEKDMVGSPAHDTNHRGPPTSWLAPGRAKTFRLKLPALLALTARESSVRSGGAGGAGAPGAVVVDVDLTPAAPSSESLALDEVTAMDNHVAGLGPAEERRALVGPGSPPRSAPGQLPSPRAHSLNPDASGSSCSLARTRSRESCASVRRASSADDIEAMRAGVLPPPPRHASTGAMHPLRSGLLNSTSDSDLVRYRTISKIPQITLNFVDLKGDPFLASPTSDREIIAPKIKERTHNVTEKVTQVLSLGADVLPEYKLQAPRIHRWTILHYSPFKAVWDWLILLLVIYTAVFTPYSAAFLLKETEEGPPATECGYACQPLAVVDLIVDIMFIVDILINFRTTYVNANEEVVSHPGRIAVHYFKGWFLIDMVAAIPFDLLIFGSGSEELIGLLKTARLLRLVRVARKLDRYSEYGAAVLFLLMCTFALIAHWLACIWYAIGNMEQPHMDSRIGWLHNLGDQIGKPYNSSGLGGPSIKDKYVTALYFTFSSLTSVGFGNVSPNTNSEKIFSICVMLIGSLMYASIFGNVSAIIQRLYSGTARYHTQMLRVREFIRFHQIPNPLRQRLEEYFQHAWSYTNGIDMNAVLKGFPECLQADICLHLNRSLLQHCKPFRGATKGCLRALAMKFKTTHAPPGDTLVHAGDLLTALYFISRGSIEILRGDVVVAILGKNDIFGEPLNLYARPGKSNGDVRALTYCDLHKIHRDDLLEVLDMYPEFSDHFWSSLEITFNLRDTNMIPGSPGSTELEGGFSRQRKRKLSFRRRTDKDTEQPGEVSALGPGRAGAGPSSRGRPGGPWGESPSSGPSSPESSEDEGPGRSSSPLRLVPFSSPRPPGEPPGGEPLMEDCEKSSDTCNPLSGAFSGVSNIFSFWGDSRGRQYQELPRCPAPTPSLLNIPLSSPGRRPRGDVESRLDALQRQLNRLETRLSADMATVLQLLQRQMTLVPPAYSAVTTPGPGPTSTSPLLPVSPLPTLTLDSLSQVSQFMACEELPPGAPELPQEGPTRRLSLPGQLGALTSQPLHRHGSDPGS

SMILES	pIC50 (hERG)	Human Microsome Clearance (% ER) [1]	efflux ratio at 2 h, 10 μM (MDR1 (P-gp))
C[C@@H]1CCc2ncc(F)cc2[C@H]2CCCN2c2ccn3ncc(c3n2)C(=O)N1 [Formula I]	4.57	79 % ER	14
C[C@H]1CCc2ncc(F)cc2[C@H]2CCCN2c2ccn3ncc(c3n2)C(=O)N1 [formula I′]	5.05	92 % ER	5
